Laboratory results published in US20230086702A1, “SUBSTITUTED 2-AMINO-PYRAZOLYL-[1,2,4]TRIAZOLO[1,5A]PYRIDINE DERIVATIVES AND USE THEREOF” (The Johns Hopkins University, priority 2019, published 2023).

What was measured:
[1] = system: retina; test: Retinal structure and function after intravitreal injection (optical coherence tomography, electroretinographs); type: in vivo, mice; details: 7 days following intravitreal injection of 10 mM, vs vehicle (DMSO) (FIG. 10, 11A, 11B)
Procedure: Optical coherence tomography images of mice 7 days following intravitreal injections of either vehicle (DMSO) or 10 mM I-81 were obtained (FIG. 10). Retinal electroretinographs were also acquired (FIGS. 11A and 11B).

[2] = target: T1, DLK (Homo sapiens, UniProt Q12852); test: DLK biochemical assay (TR-FRET, MKK7 phosphorylation); details: DLK catalytic domain, MKK7 substrate, 60 μM ATP
T1 construct: 10 nM DLK, catalytic domain, Carna Biosiences; purchased Carna Biosciences ('Carna Biosiences' [sic])
T1 sequence (Q12852 125-366 limits assumed): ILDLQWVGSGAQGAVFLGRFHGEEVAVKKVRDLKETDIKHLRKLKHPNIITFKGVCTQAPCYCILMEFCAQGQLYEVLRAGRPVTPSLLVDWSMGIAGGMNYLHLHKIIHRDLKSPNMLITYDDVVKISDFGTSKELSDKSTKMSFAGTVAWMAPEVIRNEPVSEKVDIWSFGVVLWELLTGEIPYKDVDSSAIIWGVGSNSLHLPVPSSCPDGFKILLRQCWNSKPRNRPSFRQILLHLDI
Procedure, shortened: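 TR-FRET read-out (ratio of 665 nm acceptor to Eu donor channel) tracks MKK7 T275/S277 phosphorylation by DLK, using Eu-labelled anti-phospho-MKK7 and XL665-labelled anti-His on His-MKK7. Reactions were stopped and detected in pH 7.5 Tris buffer containing 100 mM EDTA, 100 mM NaCl, 200 mM KF and 0.01% Tween 20.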

[3] = target: T2, LZK (Homo sapiens, UniProt O43283); test: LZK biochemical assay (TR-FRET, MKK7 phosphorylation); details: LZK catalytic domain, MKK7 substrate, 15 μM ATP
T2 construct: 10 nM LZK, catalytic domain, Carna Biosiences in assay buffer; purchased Carna Biosciences ('Carna Biosiences' [sic])
T2 sequence (O43283 168-409 limits assumed): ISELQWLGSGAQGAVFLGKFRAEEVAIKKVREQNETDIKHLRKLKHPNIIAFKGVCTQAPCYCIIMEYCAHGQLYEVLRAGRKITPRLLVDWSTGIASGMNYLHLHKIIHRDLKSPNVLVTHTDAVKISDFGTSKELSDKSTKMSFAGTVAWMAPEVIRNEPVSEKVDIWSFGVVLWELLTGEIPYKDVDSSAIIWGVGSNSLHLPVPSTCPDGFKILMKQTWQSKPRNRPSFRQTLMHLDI

CC[C@H](C)NC(=O)c1cc(-c2cnn([C@H](c3ccc(C(F)(F)F)nc3)C3CCN(C(=O)OC(C)(C)C)CC3)c2)cn2nc(N)nc12 [Example I-81, tert-Butyl 4-{(4-{2-amino-8-[(2S)-butan-2-ylcarbamoyl][1,2,4]triazolo[1,5-a]pyridin-6-yl}-1H-pyrazol-1-yl)[6-(trifluoromethyl)pyridin-3-yl]methyl}piperidine-1-carboxylate]
structural or functional toxicity to the retina [1]: did not induce structural or functional toxicity to the retina
IC50 [2]: 6.6 nM
IC50 [3]: 8.5 nM
